According to patent US10047051B2, “Substituted pyridines and method of use” (AbbVie S.á{acute over (.)}r.l., priority 2015, dated 2018):

Assays:
CFTR ΔF508 mutant = molecular target: T1, CFTR ΔF508 mutant (Homo sapiens, UniProt P13569, DEL508-508); experiment: YFP-halide influx assay for the CFTR-ΔF508 mutation (CFBE41o- cells); type: cell-based; details: forskolin 10.67 μM; for EC50: from (1−F/F0) vs concentration plot
T1 construct: expressed in transfected cells; host or cells: CFBE41o- cells, adenoviral transduction
Procedure, shortened: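 CFBE41o- cells transduced with adenovirus expressing CFTR ΔF508 and halide-sensitive YFP H148Q/I152L/F47L, then held 24 h at 27° C or with a CFTR modulator 24 h at 37° C. Iodide-induced quench recorded 2 min; EC50 from (1−F/F0) at 36 s versus concentration.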

CFTR G551D mutant = molecular target: T2, CFTR G551D mutant (Homo sapiens, UniProt P13569, G551D); experiment: YFP-halide influx assay for the CFTR-G551D mutation (HEK293 cells); type: cell-based; details: forskolin 10.67 μM
T2 construct: expressed in transfected cells; host or cells: HEK293 cells, reverse transfection with plasmids
Procedure, shortened: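 HEK293 cells reverse-transfected with CFTR G551D and halide-sensitive YFP (H148Q/I152L/F47L), expressed 24 h at 37 °C. YFP fluorescence quenching recorded for 7 s after I⁻ injection. Response = 1−F/F0; EC50 derived from 1−F/F0 vs compound concentration.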

T2 sequence (P13569 whole entry G551D): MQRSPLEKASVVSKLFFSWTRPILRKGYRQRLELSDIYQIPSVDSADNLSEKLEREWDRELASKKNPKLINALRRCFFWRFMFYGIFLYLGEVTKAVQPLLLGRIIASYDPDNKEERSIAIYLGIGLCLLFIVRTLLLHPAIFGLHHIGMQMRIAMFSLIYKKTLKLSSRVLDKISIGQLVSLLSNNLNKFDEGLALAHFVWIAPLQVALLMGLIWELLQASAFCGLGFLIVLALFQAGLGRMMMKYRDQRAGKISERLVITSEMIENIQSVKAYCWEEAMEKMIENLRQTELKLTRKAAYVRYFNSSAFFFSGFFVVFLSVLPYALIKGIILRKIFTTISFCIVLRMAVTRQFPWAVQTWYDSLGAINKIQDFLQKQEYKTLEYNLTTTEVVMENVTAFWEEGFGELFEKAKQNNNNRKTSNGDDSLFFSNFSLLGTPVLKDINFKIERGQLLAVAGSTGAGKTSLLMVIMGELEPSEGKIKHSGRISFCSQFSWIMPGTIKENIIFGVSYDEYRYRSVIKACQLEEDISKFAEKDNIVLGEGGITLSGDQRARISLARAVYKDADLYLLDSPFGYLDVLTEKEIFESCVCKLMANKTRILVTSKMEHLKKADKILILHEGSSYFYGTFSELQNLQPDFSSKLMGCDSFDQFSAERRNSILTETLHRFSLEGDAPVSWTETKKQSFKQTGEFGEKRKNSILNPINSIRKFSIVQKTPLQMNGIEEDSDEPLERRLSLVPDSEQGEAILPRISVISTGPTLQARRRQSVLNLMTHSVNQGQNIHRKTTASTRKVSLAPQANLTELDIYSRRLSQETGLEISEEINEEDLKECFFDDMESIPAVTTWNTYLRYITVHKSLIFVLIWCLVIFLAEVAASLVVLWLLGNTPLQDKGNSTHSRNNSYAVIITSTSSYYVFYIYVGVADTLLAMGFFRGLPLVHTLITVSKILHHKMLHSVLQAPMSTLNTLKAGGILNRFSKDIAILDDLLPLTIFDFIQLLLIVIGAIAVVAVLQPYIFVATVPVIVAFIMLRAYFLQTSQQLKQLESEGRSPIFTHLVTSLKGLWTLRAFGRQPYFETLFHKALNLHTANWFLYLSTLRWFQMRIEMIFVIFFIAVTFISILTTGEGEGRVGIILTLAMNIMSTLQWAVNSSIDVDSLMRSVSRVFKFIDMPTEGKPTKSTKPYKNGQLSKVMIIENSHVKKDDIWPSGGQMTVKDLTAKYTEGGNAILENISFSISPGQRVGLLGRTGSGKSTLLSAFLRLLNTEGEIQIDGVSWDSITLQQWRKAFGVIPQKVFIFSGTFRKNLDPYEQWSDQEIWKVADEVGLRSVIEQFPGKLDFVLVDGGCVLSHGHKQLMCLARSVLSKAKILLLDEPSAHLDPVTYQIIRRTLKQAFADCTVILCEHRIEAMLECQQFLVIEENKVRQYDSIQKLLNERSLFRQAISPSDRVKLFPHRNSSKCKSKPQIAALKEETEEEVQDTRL
T1 sequence (P13569 with tags, fused parts or gaps DEL508-508): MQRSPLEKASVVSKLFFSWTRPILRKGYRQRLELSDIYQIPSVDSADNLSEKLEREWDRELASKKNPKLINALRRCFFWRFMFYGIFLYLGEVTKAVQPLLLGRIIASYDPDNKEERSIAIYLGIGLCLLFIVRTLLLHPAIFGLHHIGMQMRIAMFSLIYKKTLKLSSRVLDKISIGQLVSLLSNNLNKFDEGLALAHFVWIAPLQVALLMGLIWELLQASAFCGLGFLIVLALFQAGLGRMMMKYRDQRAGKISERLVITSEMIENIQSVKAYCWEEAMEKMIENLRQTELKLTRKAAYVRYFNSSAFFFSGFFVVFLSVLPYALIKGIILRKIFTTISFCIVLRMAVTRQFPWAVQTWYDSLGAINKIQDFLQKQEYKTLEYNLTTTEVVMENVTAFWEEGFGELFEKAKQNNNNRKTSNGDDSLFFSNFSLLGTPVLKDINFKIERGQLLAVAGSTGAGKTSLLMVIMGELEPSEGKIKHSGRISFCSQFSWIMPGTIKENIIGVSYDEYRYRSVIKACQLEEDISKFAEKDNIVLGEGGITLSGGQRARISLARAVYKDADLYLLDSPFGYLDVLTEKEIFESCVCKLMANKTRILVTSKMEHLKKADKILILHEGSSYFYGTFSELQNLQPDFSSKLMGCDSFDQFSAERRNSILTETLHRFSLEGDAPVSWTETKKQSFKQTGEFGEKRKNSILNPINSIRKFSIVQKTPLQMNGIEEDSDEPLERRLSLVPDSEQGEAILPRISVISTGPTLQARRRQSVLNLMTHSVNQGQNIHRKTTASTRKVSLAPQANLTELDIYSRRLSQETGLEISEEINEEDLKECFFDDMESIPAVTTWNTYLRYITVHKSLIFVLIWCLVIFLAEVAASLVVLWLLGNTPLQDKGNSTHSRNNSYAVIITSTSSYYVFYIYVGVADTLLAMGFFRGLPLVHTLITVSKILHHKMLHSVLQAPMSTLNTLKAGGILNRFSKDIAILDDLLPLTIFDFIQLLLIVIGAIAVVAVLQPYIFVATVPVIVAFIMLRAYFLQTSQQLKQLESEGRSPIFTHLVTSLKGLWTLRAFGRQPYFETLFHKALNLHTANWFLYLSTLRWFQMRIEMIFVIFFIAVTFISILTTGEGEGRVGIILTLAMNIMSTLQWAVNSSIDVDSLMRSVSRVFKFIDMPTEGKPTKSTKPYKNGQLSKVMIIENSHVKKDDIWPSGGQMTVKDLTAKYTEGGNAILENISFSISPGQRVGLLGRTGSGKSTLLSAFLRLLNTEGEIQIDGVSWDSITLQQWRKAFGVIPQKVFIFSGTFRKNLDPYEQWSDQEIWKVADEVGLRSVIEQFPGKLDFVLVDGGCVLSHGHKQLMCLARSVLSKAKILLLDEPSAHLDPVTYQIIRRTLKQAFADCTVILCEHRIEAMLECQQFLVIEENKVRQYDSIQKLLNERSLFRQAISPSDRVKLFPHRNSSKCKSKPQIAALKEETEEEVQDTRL

SMILES | % Activation (CFTR ΔF508 mutant) [%] | EC50 (CFTR ΔF508 mutant) [nM] | % Activation (CFTR G551D mutant) [%] | EC50 (CFTR G551D mutant) [nM]
Nc1cc(S(=O)(=O)c2ccc(OC(F)(F)F)cc2)cnc1C(=O)NCC1CC1 [Compound 155, 3-amino-N-(cyclopropylmethyl)-5-{[4-(trifluoromethoxy)phenyl]sulfonyl}pyridine-2-carboxamide] | 108.0 | 81.2 | 80.2 | 987
CC1CCOCC1CNC(=O)c1ncc(S(=O)(=O)c2ccc(OC(F)(F)F)cc2)cc1N (stereo not drawn) [Compound 156, 3-amino-N-[(4-methyltetrahydro-2H-pyran-3-yl)methyl]-5-{[4-(trifluoromethoxy)phenyl]sulfonyl}pyridine-2-carboxamide] | 94.0 | 238 | 63.5 | 1390
Nc1cc(S(=O)(=O)c2ccc(C(F)(F)F)cc2)cnc1C(=O)N1CC(C(F)(F)F)C1 [Compound 157, (3-amino-5-{[4-(trifluoromethyl)phenyl]sulfonyl}pyridin-2-yl)[3-(trifluoromethyl)azetidin-1-yl]methanone] | 101.2 | 33.7 | 28.8 | > 10000
Nc1cc(S(=O)(=O)c2ccc(C(F)(F)F)cc2F)cnc1C(=O)N1CC(C(F)(F)F)C1 [Compound 160, (3-amino-5-{[2-fluoro-4-(trifluoromethyl)phenyl]sulfonyl}pyridin-2-yl)[3-(trifluoromethyl)azetidin-1-yl]methanone] | 113.9 | 23.6 | 52.7 | 566
CC(C)C1(O)CN(C(=O)c2ncc(S(=O)(=O)c3ccc(C(F)(F)F)cc3F)cc2N)C1 [Compound 162, (3-amino-5-{[2-fluoro-4-(trifluoromethyl)phenyl]sulfonyl}pyridin-2-yl)[3-hydroxy-3-(propan-2-yl)azetidin-1-yl]methanone] | 101.8 | 2.7 | 68.0 | 255
COCCC(C)(O)CNC(=O)c1ncc(S(=O)(=O)c2ccc(C(F)(F)F)cc2F)cc1N (stereo not drawn) [Compound 163, 3-amino-5-{[2-fluoro-4-(trifluoromethyl)phenyl]sulfonyl}-N-(2-hydroxy-4-methoxy-2-methylbutyl)pyridine-2-carboxamide] | 97.0 | 22.6 | 71.9 | 2300
Nc1cc(S(=O)(=O)c2ccc(C(F)(F)F)cc2F)cnc1C(=O)N1CC(F)(F)C1 [Compound 164, (3-amino-5-{[2-fluoro-4-(trifluoromethyl)phenyl]sulfonyl}pyridin-2-yl)(3,3-difluoroazetidin-1-yl)methanone] | 102.0 | 8.2 | 71.5 | 683
COCCC(C)(O)CNC(=O)c1ncc(S(=O)(=O)c2ccc(C(F)(F)F)cc2)cc1N (stereo not drawn) [Compound 167, 3-amino-N-(2-hydroxy-4-methoxy-2-methylbutyl)-5-{[4-(trifluoromethyl)phenyl]sulfonyl}pyridine-2-carboxamide] | 98.3 | 41.7 | 71.5 | 1550
Nc1cc(S(=O)(=O)c2ccc(OC(F)(F)F)cc2F)cnc1C(=O)N1CC(F)(F)C1 [Compound 172, (3-amino-5-{[2-fluoro-4-(trifluoromethoxy)phenyl]sulfonyl}pyridin-2-yl)(3,3-difluoroazetidin-1-yl)methanone] | 95.9 | 13.4 | 62.4 | 864

The remaining molecules from weak to strong by EC50 (CFTR ΔF508 mutant), led by results:

% Activation (CFTR ΔF508 mutant) [%] | EC50 (CFTR ΔF508 mutant) [nM] | % Activation (CFTR G551D mutant) [%] | EC50 (CFTR G551D mutant) [nM] | SMILES
114.3 | 31.6 | 29.2 | > 10000 | Nc1cc(S(=O)(=O)c2ccc(C(F)(F)F)cc2)cnc1C(=O)N1CC(OC(F)F)C1 [Compound 158, (3-amino-5-{[4-(trifluoromethyl)phenyl]sulfonyl}pyridin-2-yl)[3-(difluoromethoxy)azetidin-1-yl]methanone]
97.3 | 21.5 | 45.8 | 681 | Nc1cc(S(=O)(=O)c2ccc(C(F)(F)F)cc2F)cnc1C(=O)N1CC(OC(F)F)C1 [Compound 161, (3-amino-5-{[2-fluoro-4-(trifluoromethyl)phenyl]sulfonyl}pyridin-2-yl)[3-(difluoromethoxy)azetidin-1-yl]methanone]
111.7 | 17.5 | 69.3 | 661 | CC(C)COCC(O)CNC(=O)c1ncc(S(=O)(=O)c2ccc(C(F)(F)F)cc2)cc1N (stereo not drawn) [Compound 166, 3-amino-N-[2-hydroxy-3-(2-methylpropoxy)propyl]-5-{[4-(trifluoromethyl)phenyl]sulfonyl}pyridine-2-carboxamide]
95.5 | 13.8 | 81.3 | 1120 | Nc1cc(S(=O)(=O)c2ccc(OC(F)(F)F)cc2F)cnc1C(=O)NCC(O)COCC1CC1 (stereo not drawn) [Compound 169, 3-amino-N-[3-(cyclopropylmethoxy)-2-hydroxypropyl]-5-{[2-fluoro-4-(trifluoromethoxy)phenyl]sulfonyl}pyridine-2-carboxamide]
103.5 | 9.6 | 82.4 | 539 | CC(C)OCC(O)CNC(=O)c1ncc(S(=O)(=O)c2ccc(OC(F)(F)F)cc2F)cc1N (stereo not drawn) [Compound 168, 3-amino-5-{[2-fluoro-4-(trifluoromethoxy)phenyl]sulfonyl}-N-[2-hydroxy-3-(propan-2-yloxy)propyl]pyridine-2-carboxamide]
103.7 | 8.7 | 86.4 | 991 | CC(C)COCC(O)CNC(=O)c1ncc(S(=O)(=O)c2ccc(OC(F)(F)F)cc2F)cc1N (stereo not drawn) [Compound 171, 3-amino-5-{[2-fluoro-4-(trifluoromethoxy)phenyl]sulfonyl}-N-[2-hydroxy-3-(2-methylpropoxy)propyl]pyridine-2-carboxamide]
108.6 | 6.6 | 82.5 | 251 | CC(C)COCC(O)CNC(=O)c1ncc(S(=O)(=O)c2ccc(C(F)(F)F)cc2F)cc1N (stereo not drawn) [Compound 170, 3-amino-5-{[2-fluoro-4-(trifluoromethyl)phenyl]sulfonyl}-N-[2-hydroxy-3-(2-methylpropoxy)propyl]pyridine-2-carboxamide]
111.1 | 4.4 | 46.6 | 238 | CC(C)C1(O)CN(C(=O)c2ncc(S(=O)(=O)c3ccc(C(F)(F)F)cc3)cc2N)C1 [Compound 159, (3-amino-5-{[4-(trifluoromethyl)phenyl]sulfonyl}pyridin-2-yl)[3-hydroxy-3-(propan-2-yl)azetidin-1-yl]methanone]
98.3 | 2.6 | 47.6 | 181 | Nc1cc(S(=O)(=O)c2ccc(OC(F)(F)F)cc2F)cnc1C(=O)N1CC(O)(C(F)(F)F)C1 [Compound 173, (3-amino-5-{[2-fluoro-4-(trifluoromethoxy)phenyl]sulfonyl}pyridin-2-yl)[3-hydroxy-3-(trifluoromethyl)azetidin-1-yl]methanone]
